Experimental data from publication PMC5626019 (Nature, 2017).
One block for each substance: values may come before it. No end group written: not given here.

Assays:
DQB1*05:01 = settings: competition binding to purified MHC
DQB1*04:02 = settings: competition binding to purified MHC
PBMC = assay: IFNγ and IL-5 dual ELISPOT after 14 days culture; type: cell-based, human
[1] = target: purified HLA A*11:01 molecules (Homo sapiens, UniProt P04439, A114D/D185E/E176A/F33Y/L180Q/S129P/T187R); assay: HLA class I competition binding assay; settings: for binding, in words: purified HLA A*11:01 in vitro
[2] = tested on: 26 common HLA class II alleles; assay: HLA class II competition binding, panel of common alleles; parameters: species or system human

binding, in words (DQB1*05:01): strongly bound
Substance: DNEAYEMPSEEGYQD

binding, in words (DQB1*05:01): low affinity | binding, in words (DQB1*04:02): low affinity
Substance: EMPSEEGYQDYEPEA

Substance: GKTKEGVLYVGSKTK
T cell response, in words (PBMC; PBMC stimulated 14 days, peptides 5 μg/ml): apparent Class II restricted IL-5 and IFNγ response

binding, in words [1]: bound poorly
Substance: GVLYVGSKTK

Substance: MPVDPDNEAYEMPSE
binding, in words [2]: bound several alleles with lower affinity

Substance: VLYVGSKTK
IC50 [1]: 0.161 µM

binding, in words [1]: bound poorly
Substance: VLYVGSKTKK

Substance: phosphorylated aaS129 aa116MPVDPDNEAYEMPSEaa130: phosphorylated aaS129 epitope
IL-5 responses in PD compared with HC (PBMC; p=0.02, Fisher's exact test, 300 SFC threshold): markedly higher
